As usually defined, the melting point is the temperature, or range, at which the solid turns liquid.

Structures are written as SMILES.

This passage reports melting point results from a melting point compilation (Tetko et al.; mined from patent text by program, amines drawn as free bases though some values may be those of a salt).

`COc1ccc2nc3ccc(CC(=O)O)cn3c(=O)c2c1`: the melting point was in the range of 281 to 282 °C.
Compound `C#CC(C)NC(=O)CCCCl` (centres undefined) displayed a melting point of 50 to 51 °C.
For `CC(C)(C)OC(=O)CN(CCO)C(=O)c1cc([N+](=O)[O-])ccc1F`, the melting point is 116 to 118 °C.
The value for `CCN(CC)c1ccc(C2(c3ccc(N(C)C)cc3)OC(=O)c3ccccc32)c(N(CC)CC)c1` (centres undefined) was 117 to 119 °C.
Compound `CON=C1C(C)(C)c2cc3nc(SCc4ncc(C)c(OC)c4C)[nH]c3cc2C1(C)C` yielded a melting point of 110 to 112 °C.
Compound `Cc1c(-c2ccc(O)cc2)n(Cc2ccc(OCCN3CCCC3)cc2)c2ccc(O)cc12` had a melting point of 105 to 110 °C.
Compound `CN(C)CCNC(=O)c1cccc(-c2cccc3cn(Cc4cccc(C(F)(F)F)c4)nc23)c1` had a melting point of 102 to 103 °C.
The compound `COC(=O)COc1ccc(Cc2ncc(C(F)(F)F)cc2Cl)c(Cl)c1Cl` came in with a melting point of 110 to 111 °C.
Compound `CCN(C)C(=O)c1nn(-c2ccc(Cl)cc2)c(=O)c2c(N)scc12` displayed a melting point of 148 to 150 °C.
The compound `CC(=O)OCC12CCC(=O)C=C1CCC1C2CCC2(C)C(O)CCC12` (centres undefined) yielded a melting point of 125 to 127 °C.
Regarding `CC(C)[C@](C)(S)C(=O)O`, the melting point is 78 to 80 °C.
In the case of `CCc1nc2cc(COC)c(Cl)cc2n1-c1ccc(CCNC(=O)NS(=O)(=O)c2ccc(C)cc2)cc1`, the melting point worked out at 135 °C.
Take `O=S(=O)(NCCSc1cc(F)c(OCCO)c(F)c1)c1ccc(Cl)cc1`: the melting point was in the range of 43.5 to 45 °C.
As for `CCOC(=O)c1cc2c(cn1)[nH]c1cccc(C=Nc3ccccc3)c12`, the melting point lay in the range of 298 to 302 °C.
On to `Cc1ccccc1P(=NC(=O)OCc1cccnc1)(c1ccccc1)c1ccccc1`, for which the melting point lay in the range of 142 to 143 °C.
The same measure for `CS(=O)(=O)c1cc2[nH]c(=O)c(=O)n(C3CCCCC3)c2cc1[N+](=O)[O-]`: > 280 °C; for `CCCc1nc2c(N)nc3cc(OCCC4CCN(C(=O)OC(C)(C)C)CC4)ccc3c2n1CC(C)C`: 196 to 200 °C.
Take `Cc1cc(-c2ccc(C(F)(F)F)cc2)cc(-c2cccc(-c3cccc(N)c3)n2)n1`: the melting point was 167 °C.
For `O=C(COC(=O)c1nocc1Br)NCCO[N+](=O)[O-]`, the melting point is 98 to 99 °C.
`CNC(=O)c1cccc(F)c1Nc1nc(Nc2ccc3c(c2)CCN(CCOC)CC3)ncc1Br` gave a melting point of 99 to 105 °C.
As to `Cc1ncnc(-c2ccc(Cl)cc2F)c1Cl`, the melting point was 77 to 79 °C.
Compound `CC(C)Oc1ccc(/C=C(\NC(=O)c2ccc(OCCc3ccc4ccccc4c3)cc2)C(=O)NCCO)cc1` showed a melting point of 78 to 79 °C.
As to `CC1CN(c2c(F)c(N)c3c(=O)c(C(=O)O)cn(C4CC4)c3c2OC(F)F)CCN1` (centres undefined), the melting point was 283 to 286 °C.
The compound `O=C1OC(c2ccccc2)=NC1=Cc1cc(Cl)ccc1Sc1cccs1` came in with a melting point of 125 to 127 °C.
In turn, `CON=C(C(=O)O)c1nc(NC=O)c(Cl)cc1Cl` registered a melting point of 164 to 165 °C.
For `CCOC(=O)c1n[nH]c(C(=O)OCC)c1C(=O)c1ccc(Cl)cc1[N+](=O)[O-]`, the melting point is 168 °C.
The value for `COc1cc2c(cc1OCc1ccccc1)C(C1(c3ccccc3OC)CC1)N(C)CC2` (centres undefined) was 118 °C; that for `COc1c(O)cccc1C=O` was 116 °C.
`Cc1cc(-c2c(Cl)ccc(C(=O)O)c2Cl)on1`: the melting point was in the range of 154 to 156 °C.
Consider `COc1ccc2ccccc2c1CN1CCC(=O)C(C(c2ccc(F)cc2)c2ccc(F)cc2)C1` (centres undefined), for which the melting point was 125 to 126 °C.
Compound `COc1cc2c(c3c1OC(C)(C)C3)C(c1cccc(C(=O)NC(C)(C)C(N)=O)c1)=NC(C)(C)C2` had a melting point of 129 to 131 °C.
The same measure for `CCCCC(=O)Nc1cccc(NC(=O)CC(C)=O)c1`: 90 °C.
Regarding `CC(Nc1nc2ccc(Cl)cc2cc1C(=O)O)C(=O)O` (centres undefined), the melting point is 178 to 190 °C.
`Cc1cc(C(=O)N2CC(O)C2)ncc1C(c1cc(F)ccc1F)S(=O)(=O)c1ccc(F)cc1` (centres undefined) gave a melting point of 219 to 221 °C.
The same measure for `CC(C)c1cc(C(C)C)c(CC(=O)NS(=O)(=O)Oc2c(C(C)C)cc(C=O)cc2C(C)C)c(C(C)C)c1`: 71 to 76 °C; for `COc1ccccc1N1CCN(CCCNC(=O)c2cc(OC(C)=O)cc3c(=O)c(C)c(-c4ccccc4)oc23)CC1`: 148 to 149 °C; for `COc1cncnc1N1CCN(CCCc2c[nH]c3ccc(CNC(C)=O)cc23)CC1`: 169 to 174 °C.
For `CCNC1CN(c2cc3c(cc2F)c(=O)c2c(=O)[nH]sc2n3C2CC2)C1`, the melting point fell in the range of 231 to 236 °C.
`Cc1onc(-c2ccccc2)c1C(=O)NCCCN1CCN(c2ccc(F)cc2OCC(F)(F)F)CC1` came in with a melting point of 112 to 135 °C.
Compound `O=CN(Cn1cc(Cl)cnc1=O)c1ccccc1` registered a melting point of 200 °C.
For `CC1C(=NCCCN(C)C)c2c([nH]c3ccc(Cl)cc3c2=O)CC1c1ccc(C(F)(F)F)cc1` (centres undefined), the melting point lay within 169 to 170 °C.
In the case of `CCOC(=O)c1cnc2sc(C(=O)Cc3ccccc3)c(C)c2c1O`, the melting point was 208 to 214 °C.
With `C[Si](C)(CCCSCCCNC(=O)n1cc(F)c(=O)[nH]c1=O)c1ccccc1`, the melting point is 51 to 52 °C.
Compound `COC(=O)c1ccc2c(c1)C(=O)N(c1ccccc1)C2=O` came in with a melting point of 200 to 207 °C.
For `Fc1cccc(-c2ccc(Cl)nn2)c1`, the melting point was 133 to 135 °C.
The value for `CCCCCCCCCCCCc1c[nH]c(C=O)c1` was 64 to 65 °C; that for `O=C1CCC(=O)N1Sc1ccccc1` was 110 to 112 °C; that for `CCCOC(=O)C1=C(C)NC(C)=C(C(=O)N[C@H](C(=O)OCC)C(C)C)[C@@H]1c1cccc([N+](=O)[O-])c1` was 119 to 121 °C.
The same measure for `Brc1cn2cc(-c3ccccc3)nc2c(Br)n1`: 254 °C; for `CCOC(=O)Nc1cccc(C(=O)CBr)c1`: 108 to 110 °C.
In the case of `O=C(O)c1cc2ccc3c(c2c(-c2ccc4c(c2)OCO4)c1COCc1ccccc1)OCO3`, the melting point lay in the range of 219 to 221 °C.
`CC(C)(C)C(=O)SCCNC(=O)CCNC(=O)OCc1ccccc1` returned a melting point of 87 to 88 °C.
The same measure for `Cc1nc2c3c(c(C(=O)N4CCCC4)cc2n1C)CCC1(Cc2ccccc2C1)N3`: 263 to 264 °C.
For `NS(=O)(=O)c1cc(C(=O)O)cc([N+](=O)[O-])c1Oc1cccc(C(F)(F)F)c1`, the melting point came to 210 °C.
Compound `CCC(=O)Cn1c(C)cn(N=Cc2cccnc2)c1=O` returned a melting point of 183 to 184 °C.
Take `NS(=O)(=O)c1cccc(-c2cccc(-c3nc(-c4ccc(C(F)(F)F)c(F)c4)cc(C(F)(F)F)n3)c2)c1`: the melting point worked out at 228 °C.
Take `O=C(Cc1ccc(-c2ccc(C(CC3CCOCC3)c3ccc(S(=O)(=O)C4CC4)cc3)[nH]2)nc1)N1CCC1` (centres undefined): the melting point was 94 to 98 °C.
The compound `CCOC(=O)c1c(CN2CCNCC2)nc2cc(OC)c(OC)cc2c1-c1ccc(OC)c(OC)c1` had a melting point of 192 to 193 °C.
`CCOC(=O)[C@@H](N)Cc1ccc([N+](=O)[O-])cc1I` showed a melting point of 33 to 34 °C.
`O=c1[nH]nnn1-c1cc(C(F)(F)F)cc(C(F)(F)F)c1`: the melting point was in the range of 145 to 147 °C.
As to `CC(=O)C(=NNc1ccc(Cl)cc1)Sc1ccc(Cl)cc1`, the melting point was 164 to 167 °C.
The value for `CNC(=O)c1ccc(NCC(=O)O)cc1` was 234 °C; that for `O=C(O)C(=Cc1ccc(OCc2ccccc2)cc1OCc1ccccc1)Cc1ccccc1` was 175 to 176 °C.
The same measure for `CCC(=O)c1cc(Cl)c(Cl)c2c1OCC(C(=O)O)O2` (centres undefined): 229 to 231 °C; for `O=C(c1ccc(Cl)cc1)c1c(N2C(=O)c3ccccc3C2=O)sc(Br)c1CN1CCN(c2ccccc2)CC1`: 186 to 193 °C; for `CCCCCCS(=O)C1CC(=O)N1CC(=O)CCc1ccccc1` (centres undefined): 154 to 155 °C.
The same measure for `COc1cc2c(cc1OC)C(C(CO)CO)N(C(=O)Nc1ccccc1)CC2` (centres undefined): 191 to 192 °C.
With `Cn1nnc2ccc(C(O)c3ccccc3)cc21` (centres undefined), the melting point was determined as 145 °C.
Turning to `C[C@H](c1ncnc(Sc2ccc(Cl)cc2)c1F)[C@@](O)(Cn1cncn1)c1ccc(F)cc1F`, the melting point is 158 to 160 °C.
In turn, `CC(O)c1cccc(-c2ccc(CC34CCCN3C(=O)N(c3cc(Cl)cc(Cl)c3)C4=O)cc2)c1` (centres undefined) registered a melting point of 66.5 °C.
The compound `CCOC(=O)CC[C@H](NC(=O)c1ccc(C(CO)CC2CNc3nc(NC(=O)C(C)(C)C)nc(O)c3C2)cc1)C(=O)OCC` (some centres undefined) yielded a melting point of 133 to 135 °C.
`Cc1cc2c3c(ccc2cc1C=O)OC(=O)C3(C)C` gave a melting point of 193 to 195 °C.
With `Cc1ccc(-c2oc(C(F)(F)F)nc2-c2ccccc2)cc1S(N)(=O)=O`, the melting point lay within 156 to 157 °C.
The same measure for `CCCC(=O)Nc1nc(CN2CCN(C(c3ccccc3)c3ccccc3)CC2)cs1`: 128 to 135 °C.
On to `CCOc1cc2c(cc1S(N)(=O)=O)C(CNC(=O)c1cc(Cl)ccc1OC)CCO2` (centres undefined), for which the melting point lay within 204 to 205 °C.
The value for `N=c1ccccn1CC(O)COc1cccc2ccccc12` (centres undefined) was 138 to 141 °C; that for `Cc1ccc(-c2c(N)oc3c(C(C)(C)C)cc(C(C)(C)C)cc23)cc1C` was 128 to 130 °C.
Regarding `CC(C)(C)OC(=O)N1CCN(C(=O)OC[C@@]2(C)Cn3cc([N+](=O)[O-])nc3O2)CC1`, the melting point lay within 211 to 212 °C.
The same measure for `CNC(=O)C1=CC(C)(C(F)(F)F)Oc2ccc([N+](=O)[O-])cc21` (centres undefined): 196 to 197 °C; for `CCCCCCCCCCCCc1ccc2c(Cl)cccc2c1O`: 68 to 70 °C; for `O=Cc1ccc(-c2ccc(-c3ccccc3)s2)s1`: 119 to 121 °C.
`O=C(N[C@H]1CC[C@H](CCN2CCN(c3nccc4c3CCO4)CC2)CC1)c1ccc2ncccc2c1` displayed a melting point of 227 °C.
The same measure for `Cc1n[nH]c(-c2cc(Cl)ccc2N)n1`: 190 to 195 °C.
As to `CC(C)(C)C(=O)Cn1ncc(-c2ccc(S(C)(=O)=O)cc2)c(-c2ccc(F)cc2)c1=O`, the melting point fell in the range of 168 to 170 °C.
